Test results reported in the NIST ThermoML archive (doi:10.1021/acs.jced.7b00609).
± gives the expanded uncertainty stated by the source.

Test: wn = mass fraction of the nth substance listed
Conditions: 100 kPa, Liquid, Pycnometric method

SMILES | mass density (283.15 K, w1 = 0.1527) | mass density (293.15 K, w1 = 0.2052) | mass density (303.15 K, w1 = 0.2653) | mass density (283.15 K, w1 = 0.0851) | mass density (293.15 K, w1 = 0.1354) | mass density (303.15 K, w1 = 0.21)
CC1=CC(=O)c2ccccc2C1=O [2-methyl-1,4-naphthalenedione] + C1COCCO1 | 1052.8 ± 14 kg/m3 | 1056.2 ± 14 kg/m3 | 1057.1 ± 14 kg/m3 |  |  | 
O=C1OC(=O)c2ccccc21 [isobenzofuran-1,3-dione] + C1COCCO1 |  |  |  | 1052.7 ± 14 kg/m3 | 1059.7 ± 14 kg/m3 | 1061.9 ± 14 kg/m3
